Results published in US20180265515A1 (Genentech, Inc., priority 2015, published 2018).

How the values were obtained:
[1] = tested on: JAK1-dependent STAT6 phosphorylation downstream of IL-13 stimulation in BEAS-2B human bronchial epithelial cells; assay: JAK1 pathway assay in BEAS-2B cells (IL-13 stimulated STAT6 phosphorylation, MSD); assay type: cell-based; settings: read-out: P-STAT6 BEAS2B + IL13 IC50
Outline: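 BEAS-2B human bronchial epithelial cells, plated the day before in complete growth medium, were preincubated with compound for 1 hr at 37° C (0.2% DMSO final), then stimulated with IL-13 at its EC90 for 15 min. STAT6 phosphorylation in lysates was read by MSD; EC50 was taken as 50% inhibition versus DMSO control.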

[2] = molecular target: T1, isolated recombinant JAK1 kinase domain (Homo sapiens, UniProt P23458); assay: JAK1 enzyme assay (Caliper LabChip, Ki); assay type: biochemical; settings: recombinant JAK1 kinase domain, 25 μM ATP
T1 construct: The activity of the isolated recombinant JAK1 and JAK2 kinase domain was measured
Outline: (§1)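 Recombinant JAK1 or JAK2 kinase domain phosphorylating a 5-carboxyfluorescein-labelled JAK3-derived peptide, 30 min at 22° C, stopped with EDTA. Phosphorylated fraction of substrate quantified by Caliper LabChip microfluidic separation. Ki from Morrison tight-binding model corrected for ATP competition (Ki=Ki,app/(1+[ATP]/Km,app)).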

[3] = molecular target: T2, isolated recombinant JAK2 kinase domain (Homo sapiens, UniProt O60674); assay: JAK2 enzyme assay (Caliper LabChip, Ki); assay type: biochemical; settings: 25 μM ATP
T2 construct: The activity of the isolated recombinant JAK1 and JAK2 kinase domain was measured
Outline: as §1

T2 sequence (O60674 849-1124 limits assumed): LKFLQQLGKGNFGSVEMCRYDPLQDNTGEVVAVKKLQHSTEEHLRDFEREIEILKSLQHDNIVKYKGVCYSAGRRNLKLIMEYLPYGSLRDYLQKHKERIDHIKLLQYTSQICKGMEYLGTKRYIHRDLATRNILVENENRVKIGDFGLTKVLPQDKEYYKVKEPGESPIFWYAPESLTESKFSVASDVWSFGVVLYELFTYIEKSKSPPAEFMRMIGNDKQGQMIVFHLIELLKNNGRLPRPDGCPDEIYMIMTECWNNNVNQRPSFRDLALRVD
T1 sequence (P23458 875-1153 limits assumed): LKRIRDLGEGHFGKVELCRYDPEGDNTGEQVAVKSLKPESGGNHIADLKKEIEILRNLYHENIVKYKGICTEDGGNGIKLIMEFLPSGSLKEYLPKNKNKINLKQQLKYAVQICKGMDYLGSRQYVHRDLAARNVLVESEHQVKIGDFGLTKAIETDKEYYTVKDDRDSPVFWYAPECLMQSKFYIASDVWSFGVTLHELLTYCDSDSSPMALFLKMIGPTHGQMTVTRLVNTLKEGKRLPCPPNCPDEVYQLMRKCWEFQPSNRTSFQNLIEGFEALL

Compound: CSc1ccc(OC(F)F)c(-c2nn(CC(=O)N3CCC(N4CCOC[C@H]4C)CC3)cc2NC(=O)c2cnn3cccnc23)c1 [Example 57, N-[3-[2-(difluoromethoxy)-5-methylsulfanyl-phenyl]-1-[2-[4-[(3R)-3-methylmorpholin-4-yl]-1-piperidyl]-2-oxo-ethyl]pyrazol-4-yl]pyrazolo[1,5-a]pyrimidine-3-carboxamide]
- IC50 [1]: 18 nM
- Ki [2]: 0.26 nM
- Ki [3]: 0.43 nM

Compound: CC(C)Sc1ccc(OC(F)F)c(-c2nn(CC(=O)N3CCC(N4CCn5cncc5C4)CC3)cc2NC(=O)c2cnn3cccnc23)c1 [Example 139, N-[3-[2-(difluoromethoxy)-5-isopropylsulfanyl-phenyl]-1-[2-[4-(6,8-dihydro-5H-imidazo[1,5-a]pyrazin-7-yl)-1-piperidyl]-2-oxo-ethyl]pyrazol-4-yl]pyrazolo[1,5-a]pyrimidine-3-carboxamide]
- IC50 [1]: 140 nM
- Ki [2]: 0.51 nM
- Ki [3]: 0.84 nM

Compound: CC(C)Sc1ccc(OC(F)F)c(-c2nn(C)cc2NC(=O)c2cnn3cccnc23)c1 [Example 144, N-[3-[2-(difluoromethoxy)-5-(propan-2-ylsulfanyl)phenyl]-1-methyl-1H-pyrazol-4-yl]pyrazolo[1,5-a]pyrimidine-3-carboxamide]
- IC50 [1]: 5.6 nM
- Ki [2]: 0.25 nM
- Ki [3]: 0.14 nM

Compound: CC(C)Sc1ccc(OC(F)F)c(-c2nn(CC(=O)N3CCN(C4CCN(CC(=O)N(C)C)CC4)CC3)cc2NC(=O)c2cnn3cccnc23)c1 [Example 142, N-[3-[2-(difluoromethoxy)-5-isopropylsulfanyl-phenyl]-1-[2-[4-[1-[2-(dimethylamino)-2-oxo-ethyl]-4-piperidyl]piperazin-1-yl]-2-oxo-ethyl]pyrazol-4-yl]pyrazolo[1,5-a]pyrimidine-3-carboxamide]
- IC50 [1]: 110 nM
- Ki [2]: 0.88 nM
- Ki [3]: 2 nM

Compound: CSc1ccc(OC(F)F)c(-c2nn(CC(=O)N3CCC(NCC(C)(C)C#N)CC3)cc2NC(=O)c2cnn3cccnc23)c1 [Example 20, N-[1-[2-[4-[(2-cyano-2-methyl-propyl)amino]-1-piperidyl]-2-oxo-ethyl]-3-[2-(difluoromethoxy)-5-methylsulfanyl-phenyl]pyrazol-4-yl]pyrazolo[1,5-a]pyrimidine-3-carboxamide]
- IC50 [1]: 11 nM
- Ki [2]: 0.2 nM
- Ki [3]: 0.33 nM

Compound: O=C(Nc1cn(CC(=O)N2CCC(N3CCOCC3)CC2)nc1-c1cc(SC2CC2)ccc1OC(F)F)c1cnn2cccnc12 [Example 161, N-[3-[5-cyclopropylsulfanyl-2-(difluoromethoxy)phenyl]-1-[2-(4-morpholino-1-piperidyl)-2-oxo-ethyl]pyrazol-4-yl]pyrazolo[1,5-a]pyrimidine-3-carboxamide]
- IC50 [1]: 16 nM
- Ki [2]: 0.3 nM
- Ki [3]: 0.64 nM

Compound: CSc1ccc(OC(F)F)c(-c2nn(CC(=O)N3CCC(N(C)CC4(C#N)CC4)CC3)cc2NC(=O)c2cnn3cccnc23)c1 [Example 42, N-[1-[2-[4-[(1-cyanocyclopropyl)methyl-methyl-amino]-1-piperidyl]-2-oxo-ethyl]-3-[2-(difluoromethoxy)-5-methylsulfanyl-phenyl]pyrazol-4-yl]pyrazolo[1,5-a]pyrimidine-3-carboxamide]
- IC50 [1]: 13 nM
- Ki [2]: 0.17 nM
- Ki [3]: 0.26 nM

Compound: CC(C)Sc1ccc(OC(F)F)c(-c2nn(CC(=O)N3CCC(N4CCO[C@@H](CO)C4)CC3)cc2NC(=O)c2cnn3cccnc23)c1 [Example 155, N-[3-[2-(difluoromethoxy)-5-isopropylsulfanyl-phenyl]-1-[2-[4-[(2R)-2-(hydroxymethyl)morpholin-4-yl]-1-piperidyl]-2-oxo-ethyl]pyrazol-4-yl]pyrazolo[1,5-a]pyrimidine-3-carboxamide]
- IC50 [1]: 48 nM
- Ki [2]: 0.31 nM
- Ki [3]: 0.99 nM

Compound: CC(C)Sc1ccc(OC(F)F)c(-c2nn(CC(=O)N3CCC(N4CCOCC4)CC3)cc2NC(=O)c2cnn3cccnc23)c1 [Example 102, N-[3-[2-(difluoromethoxy)-5-isopropylsulfanyl-phenyl]-1-[2-(4-morpholino-1-piperidyl)-2-oxo-ethyl]pyrazol-4-yl]pyrazolo[1,5-a]pyrimidine-3-carboxamide]
- IC50 [1]: 20 nM
- Ki [2]: 0.38 nM
- Ki [3]: 0.85 nM

Compound: CSc1ccc(OC(F)F)c(-c2nn(CC(=O)N3CCC(NCC(C)C#N)CC3)cc2NC(=O)c2cnn3cccnc23)c1 (stereo not drawn) [Example 30, N-[1-[2-[4-(2-cyanopropylamino)-1-piperidyl]-2-oxo-ethyl]-3-[2-(difluoromethoxy)-5-methylsulfanyl-phenyl]pyrazol-4-yl]pyrazolo[1,5-a]pyrimidine-3-carboxamide]
- IC50 [1]: 8.7 nM
- Ki [2]: 0.29 nM
- Ki [3]: 0.38 nM

Compound: CSc1ccc(OC(F)F)c(-c2nn(CC(=O)N3CCN([C@H]4CC[C@H](C#N)CC4)CC3)cc2NC(=O)c2cnn3cccnc23)c1 [Example 100, N-[1-[2-[4-(4-cyanocyclohexyl)piperazin-1-yl]-2-oxo-ethyl]-3-[2-(difluoromethoxy)-5-methylsulfanyl-phenyl]pyrazol-4-yl]pyrazolo[1,5-a]pyrimidine-3-carboxamide]
- IC50 [1]: 9.4 nM
- Ki [2]: 0.41 nM
- Ki [3]: 0.6 nM

Compound: N#CC1(CNC2CCN(C(=O)Cn3cc(NC(=O)c4cnn5cccnc45)c(-c4cc(SC5CC5)ccc4OC(F)F)n3)CC2)CC1 [Example 166, N-[1-[2-[4-[(1-cyanocyclopropyl)methylamino]-1-piperidyl]-2-oxo-ethyl]-3-[5-cyclopropylsulfanyl-2-(difluoromethoxy)phenyl]pyraxol-4-yl]pyrazolo[1,5-a]pyrimidine-3-carboxamide]
- IC50 [1]: 17 nM
- Ki [2]: 0.29 nM
- Ki [3]: 0.72 nM

Compound: CSc1ccc(OC(F)F)c(-c2nn(CC(=O)N3CC4CCN(C)C4C3)cc2NC(=O)c2cnn3cccnc23)c1 (stereo not drawn) [Example 34, N-[3-[2-(difluoromethoxy)-5-methylsulfanyl-phenyl]-1-[2-(1-methyl-2,3,3a,4,6,6a-hexahydropyrrolo[2,3-c]pyrrol-5-yl)-2-oxo-ethyl]pyrazol-4-yl]pyrazolo[1,5-a]pyrimidine-3-carboxamide]
- IC50 [1]: 5.3 nM
- Ki [2]: 0.28 nM
- Ki [3]: 0.3 nM

Compound: O=C(Nc1c[nH]nc1-c1cc(SC2COC2)ccc1OC(F)F)c1cnn2cccnc12 [Example 175, N-[3-[2-(difluoromethoxy)-5-(oxetan-3-ylsulfanyl)phenyl]-1H-pyrazol-4-yl]pyrazolo[1,5-a]pyrimidine-3-carboxamide]
- IC50 [1]: 9.5 nM
- Ki [2]: 0.23 nM
- Ki [3]: 0.11 nM

Compound: CC(C)Sc1ccc(OC(F)F)c(-c2nn(CC(=O)N3CCC(NCC4(C#N)CC4)CC3)cc2NC(=O)c2cnn3cccnc23)c1 [Example 115, N-[1-[2-[4-[(1-cyanocyclopropyl)methylamino]-1-piperidyl]-2-oxo-ethyl]-3-[2-(difluoromethoxy)-5-isopropylsulfanyl-phenyl]pyrazol-4-yl]pyrazolo[1,5-a]pyrimidine-3-carboxamide]
- IC50 [1]: 34 nM
- Ki [2]: 0.65 nM
- Ki [3]: 1.6 nM

Compound: CSc1ccc(OC(F)F)c(-c2nn(CC(=O)N3CCC(N(C)CC(C)C#N)CC3)cc2NC(=O)c2cnn3cccnc23)c1 (stereo not drawn) [Example 29, N-[1-[2-[4-[2-cyanopropyl(methyl)amino]-1-piperidyl]-2-oxo-ethyl]-3-[2-(difluoromethoxy)-5-methylsulfanyl-phenyl]pyrazol-4-yl]pyrazolo[1,5-a]pyrimidine-3-carboxamide]
- IC50 [1]: 9 nM
- Ki [2]: 0.26 nM
- Ki [3]: 0.37 nM
